Results on 12 compounds are retold here after ChEMBL document CHEMBL1139688, “3,4,5-Trisubstituted isoxazoles as novel PPARdelta agonists. Part 2” (Bioorg Med Chem Lett, 2006).

The target of series [1] is T1, Peroxisome proliferator-activated receptor alpha (Homo sapiens, UniProt Q07869).
T1 sequence (Q07869 whole entry): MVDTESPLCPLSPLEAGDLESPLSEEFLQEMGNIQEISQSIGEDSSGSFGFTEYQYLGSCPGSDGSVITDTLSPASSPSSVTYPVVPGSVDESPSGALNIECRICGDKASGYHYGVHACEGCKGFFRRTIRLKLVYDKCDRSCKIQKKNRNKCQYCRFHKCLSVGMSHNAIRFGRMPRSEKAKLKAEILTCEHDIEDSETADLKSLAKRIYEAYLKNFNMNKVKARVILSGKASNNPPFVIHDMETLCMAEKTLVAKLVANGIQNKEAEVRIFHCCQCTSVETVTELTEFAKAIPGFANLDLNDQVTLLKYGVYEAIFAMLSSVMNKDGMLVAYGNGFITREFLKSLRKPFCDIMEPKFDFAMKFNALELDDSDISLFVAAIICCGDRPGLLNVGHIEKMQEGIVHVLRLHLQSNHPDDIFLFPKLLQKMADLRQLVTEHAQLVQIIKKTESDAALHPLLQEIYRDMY
Put plainly: Activity at human PPAR alpha by cell-based transactivation assay.

In series [2] the test system is Liver microsomes. Put plainly: Stability in rat liver microsomes. The class given is ADME, Microsome. (Liver microsomes are a subcellular fraction often used to study metabolism.)
Series [3] concerns the target T2, Peroxisome proliferator-activated receptor delta (Homo sapiens, UniProt Q03181).
T2 sequence (Q03181 whole entry): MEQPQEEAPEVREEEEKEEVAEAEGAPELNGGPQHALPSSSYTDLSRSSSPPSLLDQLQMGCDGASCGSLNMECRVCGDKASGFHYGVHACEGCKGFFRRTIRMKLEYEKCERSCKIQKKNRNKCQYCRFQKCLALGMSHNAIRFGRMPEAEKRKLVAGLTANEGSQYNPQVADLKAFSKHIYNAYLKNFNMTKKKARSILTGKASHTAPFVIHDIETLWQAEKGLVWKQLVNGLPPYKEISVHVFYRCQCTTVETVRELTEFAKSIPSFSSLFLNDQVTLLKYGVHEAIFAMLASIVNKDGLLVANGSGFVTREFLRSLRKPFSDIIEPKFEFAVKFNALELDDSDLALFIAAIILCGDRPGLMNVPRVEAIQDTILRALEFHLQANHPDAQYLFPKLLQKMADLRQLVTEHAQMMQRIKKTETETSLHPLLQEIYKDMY
Put plainly: Activity at human PPAR delta by cell-based transactivation assay.

Series [4] in a line: Stability in mouse liver microsomes. The class given is ADME, Microsome.
In series [5] the target is T3, Peroxisome proliferator-activated receptor gamma (Homo sapiens, UniProt P37231).
T3 sequence (P37231 whole entry): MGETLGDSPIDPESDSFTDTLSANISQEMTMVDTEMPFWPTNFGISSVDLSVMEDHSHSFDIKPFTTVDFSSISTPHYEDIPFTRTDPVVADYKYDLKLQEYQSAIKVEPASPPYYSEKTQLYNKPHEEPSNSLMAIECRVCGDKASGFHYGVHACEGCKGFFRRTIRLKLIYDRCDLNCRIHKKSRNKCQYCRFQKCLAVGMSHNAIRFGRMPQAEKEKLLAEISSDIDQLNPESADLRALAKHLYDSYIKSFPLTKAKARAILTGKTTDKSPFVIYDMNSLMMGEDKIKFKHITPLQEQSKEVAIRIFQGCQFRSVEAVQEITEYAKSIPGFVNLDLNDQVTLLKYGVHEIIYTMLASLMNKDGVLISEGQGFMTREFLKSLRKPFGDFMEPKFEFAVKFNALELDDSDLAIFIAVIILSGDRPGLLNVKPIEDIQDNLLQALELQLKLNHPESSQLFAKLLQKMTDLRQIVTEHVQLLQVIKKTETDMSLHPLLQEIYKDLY
Description: Activity at human PPAR gamma by cell-based transactivation assay.

Series [6] has as its system Liver microsomes. Description: Stability in human liver microsomes. The class given is ADME, Microsome.
A short description of series [7]: Half life in C57BL/6 mouse at 20 mg/kg, po. It is filed as ADME, organism-based. More on the design: dose 20 mg/kg, route oral. The note with it: in vivo.
Series [8] in a line: Cmax in C57BL/6 mouse at 20 mg/kg, po. The note with it: in vivo. Further details: dose 20 mg/kg, route oral. It is filed as ADME, organism-based.
Series [9] relates to Mus musculus. Put plainly: Regulation of PDK4 gene expression in C57BL/6 mouse skeletal muscle at 10 mg/kg, po. The class given is functional, organism-based. Further details: dose 10 mg/kg. The settings on record: Muscle tissue.
For series [10], the system named is Mus musculus. Description: Regulation of UCP3 gene expression in C57BL/6 mouse skeletal muscle at 10 mg/kg, po. More on the design: dose 10 mg/kg. The class given is functional, organism-based. The note with it: Muscle tissue.
For series [11], the system named is Mus musculus. Description: Regulation of ApoAIV gene expression in C57BL/6 mouse jejunum at 10 mg/kg, po. Further details: dose 10 mg/kg. It is filed as functional, organism-based.

Molecules are shown by their SMILES. Calls of active or inactive are those of the source.

Consider `O=C(O)Cc1ccc(-c2noc(-c3ccccc3)c2C(=O)NCCOc2ccc(Cl)cc2Cl)cc1`, for which the values for the EC50 in series [1], in series [3] and in [5] were > 10 µM, 0.72 µM and > 10 µM, respectively. The Stability result (with Liver microsomes [2]; in [4]; in the series on Liver microsomes [6]) was “Stable” in each case.

`O=C(O)Cc1ccc(-c2noc(-c3ccccc3)c2C(=O)NCCOc2ccc(Cl)cc2Cl)c(Cl)c1`: the EC50 in series [1] and in series [5] was > 10 µM throughout. The Stability entry (with Liver microsomes [2]; in series [4]; in the series on Liver microsomes [6]) was “Stable” each time. Moreover, in series [7], the half-life (as a rule, the time needed for the level to fall by half in the phase considered) is < 0.5 h. Also, the Cmax (usually the peak of the concentration-time curve) in series [8] was < 300 nM.

As to `O=C(O)Cc1cccc(-c2noc(-c3ccccc3)c2C(=O)NCCOc2ccc(Cl)cc2Cl)c1`, the outcome with Mus musculus [9], in the series on Mus musculus [10] and in the series with Mus musculus [11] was Active. Also, the EC50 – broadly, the concentration at which the effect is half-maximal – in [1] was > 10 µM; in [3] it was 0.07 µM; in [5], > 10 µM. Moreover, the Stability result (in the series on Liver microsomes [2]; in [4]; with Liver microsomes [6]) was “Stable” in each case. Also, in [7], the half-life is 3.1 h. This compound also had a Cmax in series [8] of 5100 nM.

`Cc1ccccc1-c1onc(-c2cccc(CC(=O)O)c2)c1C(=O)NCCOc1ccc(Cl)cc1Cl`: the figures for the concentration giving a half-maximal response (EC50) in series [1], in [3] and in series [5] were > 10 µM, 0.05 µM and > 10 µM, respectively. Also, the Stability result (with Liver microsomes [2]; in series [4]; in the series with Liver microsomes [6]) was “Stable” each time. In addition, in series [7], the half-life was 1.5 h. This compound also displayed a Cmax in series [8] of 1900 nM.

With `O=C(O)Cc1cccc(-c2noc(-c3ccco3)c2C(=O)NCCOc2ccc(Cl)cc2Cl)c1`, the results for the concentration giving a half-maximal response (EC50) in series [1], in series [3] and in [5] were > 10 µM, 0.09 µM and > 10 µM, respectively. In addition, the Stability result (with Liver microsomes [2]; in series [4]; in the series on Liver microsomes [6]) was “Stable” in each case. Further, the half-life in series [7] was < 0.5 h. For the same compound, the Cmax in series [8] was < 300 nM.

Regarding `Cc1cc(-c2noc(-c3ccccc3)c2C(=O)NCCOc2ccc(Cl)cc2Cl)ccc1OCC(=O)O`, the concentration giving a half-maximal response (EC50) in series [1] is > 10 µM; in series [3], 0.2 µM; in [5], > 10 µM. The Stability result (in the series on Liver microsomes [2]; in series [4]; in the series with Liver microsomes [6]) was “Stable” each time. Further, the half-life in series [7] is < 0.5 h. In addition, the Cmax in series [8] is < 300 nM.

Consider `O=C(O)c1ccc(-c2noc(-c3ccccc3)c2C(=O)NCCOc2ccc(Cl)cc2Cl)cc1`, for which the half-maximal effective concentration (EC50) in series [1], in [3] and in [5] was > 10 µM each time. Moreover, the Stability entry (in the series with Liver microsomes [2]; in series [4]; in the series on Liver microsomes [6]) was “Stable” throughout.

Regarding `CC(C)c1onc(-c2cccc(CC(=O)O)c2)c1C(=O)NCCOc1ccc(Cl)cc1Cl`, the EC50 in series [1] was > 10 µM; in series [3], 1.07 µM; in series [5], > 10 µM. The Stability entry (in the series on Liver microsomes [2]; in [4]; in the series with Liver microsomes [6]) was “Stable” in each case.

Turning to `O=C(O)Cc1cccc(-c2noc(-c3ccccc3Cl)c2C(=O)NCCOc2ccc(Cl)cc2Cl)c1`, the EC50 is > 10 µM in series [1], 0.06 µM in [3] and > 10 µM in [5]. The Stability result (in the series on Liver microsomes [2]; in [4]; in the series on Liver microsomes [6]) was “Stable” each time. This compound gave a half-life in series [7] of 1.1 h. The compound further had a Cmax in series [8] of 5600 nM.

For `COc1ccc(CC(=O)O)cc1-c1noc(-c2ccccc2)c1C(=O)NCCOc1ccc(Cl)cc1Cl`, the figures for the EC50 in series [1], in series [3] and in [5] were > 10 µM, 0.56 µM and > 10 µM, respectively. Also, the Stability entry (in the series with Liver microsomes [2]; in series [4]; in the series with Liver microsomes [6]) was “Stable” each time.

For `O=C(O)CCc1cccc(-c2noc(-c3ccccc3)c2C(=O)NCCOc2ccc(Cl)cc2Cl)c1`, the concentration for a half-maximal effect (EC50) was > 10 µM in series [1], 0.97 µM in [3] and > 10 µM in series [5]. Moreover, the Stability result (in the series on Liver microsomes [2]; in series [4]; in the series on Liver microsomes [6]) was “Stable” throughout.

Take `O=C(O)Cc1ccc(OCc2noc(-c3ccccc3)c2C(=O)NCCOc2ccc(Cl)cc2Cl)c(Cl)c1`: the 50% effective concentration (EC50) in [1], in series [3] and in series [5] was > 10 µM throughout. For the same compound, the Stability entry (in the series on Liver microsomes [2]; in series [4]; with Liver microsomes [6]) was “Stable” throughout.
